Experiments:
[1] = system: LL29 cells (primary human fibroblasts derived from IPF patients), α-smooth muscle actin; assay: Inhibition of fibrotic process: TGF-β1-treated primary human fibroblasts, αSMA staining; assay type: cell-based; settings: Homo sapiens, Fibroblast; for EC50: 96 h, TGF-β1 20 ng/mL, 4 days, % cells positive for αSMA; for inhibition at 10 µM: read-out: percent inhibition at 10 μM (given for EC50 >10 μM), TGF-β1, αSMA, 10 μM;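 for all read-outs here: controls were TGF-β1-stimulated wells with DMSO vehicle as the positive reference and cells given DMSO alone as the negative reference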
Protocol: Representative compounds were screened using primary human fibroblasts (derived from IPF patients) treated with TGF-β1 to determine their ability to inhibit the fibrotic process.
Human Fibroblast Cell Culture:
Each compound was dissolved in DMSO as a 10 mM stock and used to prepare compound source plates. […] LL29 cells were plated at 1,500 cells/well in 70 μL/well F12 medium supplemented with 1% Fetal Bovine Serum. […] Wells treated with TGF-β1 and containing DMSO were used as positive control, and cells with only DMSO were negative control. Cells were incubated at 37° C. and 5% CO2 for 4 days. Following incubation for 4 days, SYTOX green nucleic acid stain (Life Technologies [Thermo Fisher Scientific]) was added to the wells at a final concentration of 1 μM and incubated at room temperature for 30 min. Cells were then fixed using 4% formaldehyde (Electron Microscopy Sciences), washed 3 times with PBS followed by blocking and permeabilization using 3% Bovine Serum Albumin (BSA; Sigma) and 0.3% Triton X-100 (Sigma) in PBS.

[2] = system: secreted cytokines TNFα, IL-6 and KC-GRO in BV-2 cells (mouse microglial cells); assay: Secreted cytokines in lipopolysaccharide-stimulated mouse glial cell line; assay type: cell-based; settings: LPS 250 ng/mL 5 hours, table does not say which cytokine
Protocol: Representative compounds were screened using the cell-based assay procedure for secreted cytokines in a Lipopolysaccharide-stimulated mouse glial cell line described below.
BV-2 cells (mouse microglial cells) were cultured in 1:1 DMEM medium supplemented with 10% FBS, and 1% penicillin/streptomycin.
BV-2 cells are plated at 35,000 cells/well in a volume of 100 μl for at least 4 hours before compounds are added. DMSO-resuspended compounds were first dispensed in a 96-well plate and serial diluted from 10 μM to 4.6 nM final concentration in medium. Compounds were added to cells overnight. 250 ng/mL of lipopolysaccharide (Escherichia coli O111:B4, SIGMA) was added for 5 hours. Supernatant is removed and saved for further cytokine detection. The original plates with seeded cells were tested for cytotoxicity by measure of adenosine triphosphate (ATP) release by adding CellTiter-Glo® diluted 1:4 in distilled water (G7573, Promega) and transferring lysed cells to a completely black 96-well plate to be read with the Cytation3. Supernatant was then diluted 1:2 with a diluent from V-PLEX cytokine Kit and directly tested for the secreted cytokines TNFα, IL-6 and KC-GRO using electrochemiluminescence (Meso Scale Discovery). The standard curve for each cytokine was used to convert the electrochemiluminescent signal into pg of protein per mL. The signal was used to plot, draw the curve fitting, and determine each compounds EC50 in Prism (GraphPad).

[3] = system: SW480 colon carcinoma cells; assay: Cell viability assay (CellTiter-Glo); assay type: cell-based, human; settings: Homo sapiens; for EC50: 96 h, four days, CellTiter-Glo; for inhibition at 10 µM: read-out: percent inhibition at 10 μM (given for EC50 >10 μM), 10 μM
[4] = system: pT212Tau in Dyrk1a- and MAPT-overexpressing HEK293T cells; assay: Tau phosphorylation at Threonine 212 (pT212Tau) sandwich ELISA in double transfected cells; settings: Homo sapiens, HEK-293T, read-out: Thr212 EC50 (μM)
Protocol: HEK293T cells (transfectable human embryonic kidney cells) were cultured in DMEM medium supplemented with 10% FBS and 1% penicillin/streptomycin.
HEK293T cells were transiently transfected to overexpress Dyrk1a and microtubule-associated protein Tau (MAPT) genes. Specifically, Dyrk1a and MAPT expression vectors were obtained from OriGene (10 μg of each, catalog numbers SC314641 and RC216166, respectively). […] HEK293T cells were seeded at 1.0×10^7 cells in 10 mL per T-75 flask. […] One T-75 flask was designated as a no-vector negative control for pT212Tau signal.
After 4-6 hours of incubation in transfection reagents, transiently double transfected HEK293T cells were dissociated by treatment with trypsin EDTA and seeded at 1.0×10^5 cells in 100 μL per well in 96-well plates. No-vector negative controls were seeded in separate 96-well plates to avoid the risk of the negative control cells picking up the overexpression during incubation.
96-well flat-bottom plates were coated with 100 μL per well anti-HT7 capture antibody (ThermoFisher, MN1000) diluted 1:300 in 1×PBS at 4° C. overnight, with shaking at 500 rpm.
Cells were then lysed with 100 μL 1×RIPA buffer supplemented with phosphatase and protease inhibitors (each diluted to a final 1×). […] V-bottom plates were centrifuged at 4000 rpm, 4° C., for 15 minutes, and 100 μL of lysate supernatant from each well was directly tested for pT212Tau signal by sandwich ELISA.

SMILES | EC50 [2] [µM] | EC50 [3] [µM] | EC50 [1] [µM] | EC50 [4] [µM] | inhibition at 10 µM [3] [%] | inhibition at 10 µM [1] [%]
O=C(Nc1cc2cc(-c3cccnc3)ccc2cn1)C12CCN(CC1)CC2 [Compound 9, N-(6-(Pyridin-3-yl)isoquinolin-3-yl)quinuclidine-4-carboxamide] | 0.745 | > 10 | 2.27 | 0.213 | 26 | –
CN1CCN(CC(=O)Nc2cc3cc(-c4cccnc4)ccc3cn2)CC1 [Compound 11, 2-(4-Methylpiperazin-1-yl)-N-(6-(pyridin-3-yl)isoquinolin-3-yl)acetamide] | 0.327 | > 10 | 3.58 | 2.5 | 25.6 | –
CN1CCCN(CC(=O)Nc2cc3cc(-c4cccnc4)ccc3cn2)CC1 [Compound 12, 2-(4-Methyl-1,4-diazepan-1-yl)-N-(6-(pyridin-3-yl)isoquinolin-3-yl) acetamide] | 1 | > 10 | 1.19 | 0.284 | 39.3 | –
CN1CCN(CC(=O)Nc2cc3cc(-c4ccc(F)nc4)ccc3cn2)CC1 [Compound 21, N-(6-(6-Fluoropyridin-3-yl)isoquinolin-3-yl)-2-(4-methylpiperazin-1-yl) acetamide] | 0.671 | > 10 | 3.41 | 1.5 | 50 | –
[2H]c1nc([2H])c(-c2ccc3cnc(NC(=O)CN4CCOCC4)cc3c2)c([2H])c1[2H] [Compound 62, 2-Morpholino-N-(6-(pyridin-3-yl-d4)isoquinolin-3-yl)acetamide] | 0.307 | > 10 | > 10 | 0.086 | 16.6 | 13.2
O=C(CN1CCOCC1)Nc1cc2cc(-c3ccnnc3)ccc2cn1 [Compound 67, 2-morpholino-N-(6-(pyridazin-4-yl)isoquinolin-3-yl)acetamide] | 0.406 | > 10 | 1.03 | 0.206 | 19.2 | –
O=C(Nc1cc2cc(-c3cnccn3)ccc2cn1)C1CCN(C2COC2)CC1 [Compound 78, 1-(Oxetan-3-yl)-N-(6-(pyrazin-2-yl)isoquinolin-3-yl)piperidine-4-carboxamide] | 0.131 | > 10 | 2.31 | – | 27.7 | –

Molecules with a lower EC50 [2], results first:

EC50 [2] [µM] | EC50 [3] [µM] | SMILES | EC50 [1] [µM] | EC50 [4] [µM] | inhibition at 10 µM [3] [%] | inhibition at 10 µM [1] [%]
0.006 | 3.53 | O=C(CN1CCCC1)Nc1cc2cc(-c3cccnc3)ccc2cn1 [Compound 7, N-(6-(Pyridin-3-yl)isoquinolin-3-yl)-2-(pyrrolidin-1-yl)acetamide] | 4.35 | 0.225 | – | –
0.075 | > 10 | O=C(CN1CCOCC1)Nc1cc2cc(-c3cccnc3)ccc2cn1 [Compound 10, 2-Morpholino-N-(6-(pyridin-3-yl)isoquinolin-3-yl)acetamide] | > 10 | 0.046 | 15.4 | 6.2
0.038 | 3.47 | CN1CCN(C[C@H]2CC[C@H](C(=O)Nc3cc4cc(-c5cncc(F)c5)ccc4cn3)CC2)CC1 [Compound 17, trans-N-(6-(5-Fluoropyridin-3-yl)isoquinolin-3-yl)-4-((4-methylpiperazin-1-yl)methyl)cyclohexane-1-carboxamide] | 0.471 | 0.004 | – | –
0.109 | 2.2 | CN1CCC(C(=O)Nc2cc3cc(-c4cncc(N5CCCC5)c4)ccc3cn2)CC1 [Compound 50, 1-Methyl-N-(6-(5-(pyrrolidin-1-yl)pyridin-3-yl)isoquinolin-3-yl)piperidine-4-carboxamide] | > 10 | 0.113 | – | 31.1
0.086 | > 10 | [2H]c1nc([2H])c(-c2ccc3cnc(NC(=O)CN4CCN(C)CC4)cc3c2)c([2H])c1[2H] [Compound 61, 2-(4-Methylpiperazin-1-yl)-N-(6-(pyridin-3-yl-d4)isoquinolin-3-yl)acetamide] | > 10 | 0.121 | 21.6 | 4.6
